Assay results from PMC8008425, “Shedding X-ray Light on the Role of Magnesium in the Activity of Mycobacterium tuberculosis Salicylate Synthase (MbtI) for Drug Design” (Journal of Medicinal Chemistry, 2020).
In brackets after ≈: the same amount, converted by molar mass. Several values for one entry are separate records, joined by “and”; a condition that tells them apart may be missing. Identical values can stand only once. Like-named read-outs stand apart in the source and are kept apart here.

Columns and labels:
recombinant MbtI [1] = target: T1, recombinant MbtI (Mycobacterium tuberculosis, UniProt P9WFX1); assay: MbtI enzymatic (fluorimetric) inhibition assay; type: biochemical; conditions: for remaining activity at 100 µM: residual enzymatic activity at 100 μM ligand concentration, 50 μM chorismic acid
M. bovis BCG [2] = type: cell-based, Mycobacterium bovis; conditions: M. bovis BCG cultures grown at different concentrations of compound, chelated Sauton's medium
M. tuberculosis H37Rv [3] = assay: MIC99 determination on Middlebrook 7H11 agar solid medium; type: cell-based; conditions: Mycobacterium tuberculosis
M. bovis BCG [4] = assay: microbe, parasite or virus in culture; type: cell-based; conditions: Mycobacterium tuberculosis variant bovis BCG
in vitro = conditions: human
M. tuberculosis H37Rv [5] = system: M. tuberculosis H37Rv; set-up: method as in PMID 29940465, PMID 30889995; conditions: Mtb cultures; cited from earlier work
recombinant MbtI [6] = target: T1, recombinant MbtI; conditions: cited from earlier work
[7] = standard assay, 5 mM MgCl2, read-out: IC50

T1 sequence (P9WFX1 whole entry): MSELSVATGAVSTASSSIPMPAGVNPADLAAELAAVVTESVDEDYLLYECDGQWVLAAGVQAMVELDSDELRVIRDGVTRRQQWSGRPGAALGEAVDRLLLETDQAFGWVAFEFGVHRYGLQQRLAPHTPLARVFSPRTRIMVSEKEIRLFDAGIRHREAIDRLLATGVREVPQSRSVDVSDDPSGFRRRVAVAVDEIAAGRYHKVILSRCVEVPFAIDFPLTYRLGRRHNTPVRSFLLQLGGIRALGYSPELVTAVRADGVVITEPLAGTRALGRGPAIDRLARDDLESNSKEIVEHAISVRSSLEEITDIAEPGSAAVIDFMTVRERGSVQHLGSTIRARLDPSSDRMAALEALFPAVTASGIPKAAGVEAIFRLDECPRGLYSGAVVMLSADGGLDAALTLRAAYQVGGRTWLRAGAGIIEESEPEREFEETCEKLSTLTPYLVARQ

O=C(O)c1ccc(-c2cccc(C(F)(F)F)c2)o1 [Compound 1]
remaining activity at 100 µM (recombinant MbtI [1]; 5 mM MgCl2): 42 ± 6.3%

O=C(O)c1ccc(-c2cccc(Cl)c2)o1 [Compound 2, 5-(3-Chlorophenyl)furan-2-carboxylic Acid]
remaining activity at 100 µM (recombinant MbtI [1]; 5 mM MgCl2): 102 ± 17.8%
melting point: 187 °C (dec.)

O=C(O)c1ccc(-c2cccc(O)c2)o1 [Compound 3, 5-(3-Hydroxyphenyl)furan-2-carboxylic Acid]
remaining activity at 100 µM (recombinant MbtI [1]; 5 mM MgCl2): 70.4 ± 21.8%
melting point: 170 °C

Cc1cccc(-c2ccc(C(=O)O)o2)c1 [Compound 4, 5-(m-Tolyl)furan-2-carboxylic Acid]
remaining activity at 100 µM (recombinant MbtI [1]; 5 mM MgCl2): 104 ± 4.8%
melting point: 147 °C

Nc1cccc(-c2ccc(C(=O)O)o2)c1 [Compound 5, 5-(3-Aminophenyl)furan-2-carboxylic Acid]
remaining activity at 100 µM (recombinant MbtI [1]; 5 mM MgCl2): 65.8 ± 9.6%
melting point: 225 °C (dec.)

NC(=O)c1cccc(-c2ccc(C(=O)O)o2)c1 [Compound 6, 5-(3-Carbamoylphenyl)furan-2-carboxylic Acid]
remaining activity at 100 µM (recombinant MbtI [1]; 5 mM MgCl2): 20.9 ± 4.3%
IC50 (recombinant MbtI [1]; [7]): 31 µM and 31.4 µM

CNC(=O)c1cccc(-c2ccc(C(=O)O)o2)c1 [Compound 7, 5-(3-(Methylcarbamoyl)phenyl)furan-2-carboxylic Acid]
remaining activity at 100 µM (recombinant MbtI [1]; 5 mM MgCl2): 84 ± 9.1%
melting point: 159 °C

NS(=O)(=O)c1cccc(-c2ccc(C(=O)O)o2)c1 [Compound 8, 5-(3-Sulfamoylphenyl)furan-2-carboxylic Acid]
remaining activity at 100 µM (recombinant MbtI [1]; 5 mM MgCl2): 28.6 ± 6.8%

O=C(O)c1cccc(-c2ccc(C(=O)O)o2)c1 [Compound 9, 5-(3-Carboxyphenyl)furan-2-carboxylic Acid]
remaining activity at 100 µM (recombinant MbtI [1]; 5 mM MgCl2): 27.2 ± 4.5%

N#Cc1cccc(-c2ccc(C(=O)O)o2)c1 [Compound 10, 5-(3-Cyanophenyl)furan-2-carboxylic Acid]
siderophore concentration (Universal CAS assay and quantification of mycobactins) (M. bovis BCG [2]): siderophore concentration decreased at higher concentrations of the compound
MIC99 (M. tuberculosis H37Rv [3]): 250 µM (≈ 53.3 µg/mL)
IC50 (recombinant MbtI [1]; 0.1 mg/mL BSA, PAINS control, read-out: IC50 in the presence of BSA): 6.1 ± 0.9 µM
IC50 (recombinant MbtI [1]; 1 mM MgCl2, Figure 5B, x-axis [10] (μM), read-out: IC50 at 1 mM MgCl2): 9.8 ± 1.3 µM
IC50 (recombinant MbtI [1]; 5 mM MgCl2, Figure 5B, x-axis [10] (μM), read-out: IC50 at 5 mM MgCl2): 11.4 ± 2 µM
IC50 (recombinant MbtI [1]; 0.01% (v/v) Triton X-100, PAINS control, read-out: IC50 in the presence of Triton X-100): 5.8 ± 1.2 µM
IC50 (recombinant MbtI [1]; 25 mM MgCl2, Figure 5B, x-axis [10] (μM), read-out: IC50 at 25 mM MgCl2): 14.2 ± 1.1 µM
IC50 (recombinant MbtI [1]; 100 mM DTT, PAINS control, read-out: IC50 in the presence of DTT): 7.2 ± 1.1 µM
IC50 (recombinant MbtI [1]; IC50, standard assay, 5 mM MgCl2): 6.3 ± 0.9 µM
remaining activity at 100 µM (recombinant MbtI [1]; 5 mM MgCl2): 3.1 ± 1%
IC50 (recombinant MbtI [1]; [7]): ~6 µM
mode of inhibition (kinetic analysis) (recombinant MbtI [1]; steady-state kinetics toward chorismic acid): competitive inhibitor
Ki (recombinant MbtI [1]; steady-state kinetics toward chorismic acid, competitive inhibition): 4.2 µM and 4 µM
MIC99 (M. bovis BCG [4]): 250 µM (≈ 53.3 µg/mL)
IC50 (in vitro): > 100 µM

N#Cc1cccc(-c2ccc(C(N)=O)o2)c1 [Compound 11, 5-(3-Cyanophenyl)furan-2-carboxamide]
IC50 (recombinant MbtI [1]; [7]): 17.3 ± 1.9 µM
melting point: 202 °C

O=C(O)c1ccc(-c2ccc(C(F)(F)F)cc2C(F)(F)F)o1 [II]
MIC99 (M. tuberculosis H37Rv [5]): 250 µM (≈ 81 µg/mL)

O=C(O)c1ccc(-c2ccc([N+](=O)[O-])cc2)o1 [I]
IC50 (recombinant MbtI [6]; previous leads): 7.6 ± 1.6 µM
MIC99 (M. tuberculosis H37Rv [5]): 156 µM (≈ 36.4 µg/mL)

O=C(O)c1ccc(-c2cccc([N+](=O)[O-])c2)o1 [NO2, 5-(3-nitrophenyl)furan-2-carboxylic acid]
inhibitory activity (recombinant MbtI [6]; at a concentration of 100 μM): ~50%
